Here are results for 4 molecules from ChEMBL document CHEMBL1201862, “PubChem BioAssay data set” (2004).

Test systems include HCT-116; IGROV-1; K562; LOX IMVI; M14; MCF7; MDA-MB-231; MDA-N; MOLT-4; Malme-3M; OVCAR-4; RXF 393; SF-268; SF-539; SK-MEL-5; SK-OV-3; SW-620; T47D; U-251.
Assay in all cases: NCI tumour cell line growth inhibition, 48 h

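Values below derive from 48-hour exposures of cells grown in 96-well plates, with endpoints linearly interpolated between the two concentrations bracketing the appropriate inhibition level. GI50 = concentration required for 50% inhibition of growth.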 Calls of active or inactive are those of the source. Cut-off read from the data, not from the text of the source: active = GI50 up to about 1.1 µM and inactive = higher.

Turning to `O=c1c2ccccc2nc2n1NC(c1c(Cl)cccc1Cl)N2c1cccc(Cl)c1` (stereo not drawn), the GI50 was 3.27 µM (inactive) with HCT-116; 3.34 µM (inactive) with IGROV-1; 54.2 µM (inactive) with K562; 6.79 µM (inactive) in the test with LOX IMVI; 7.24 µM (inactive) in the test on M14; 1.69 µM (inactive) in the test on MCF7. In addition, the GI50 in the test with MDA-MB-231 is 2.79 µM (inactive); with MDA-N it was 5.22 µM (inactive); with MOLT-4, > 100 µM (inactive); with Malme-3M, 8.99 µM (inactive); in the test on OVCAR-4 it was 2.65 µM (inactive); with RXF 393, 4.78 µM (inactive). Moreover, the GI50 is 11.9 µM (inactive) with SF-268; 11.5 µM (inactive) with SF-539; 16.6 µM (inactive) in the test on SK-MEL-5; 2.26 µM (inactive) in the test on SK-OV-3; 3.32 µM (inactive) in the test on SW-620; 5.56 µM (inactive) with T47D. For the same molecule, in the test on U-251, the GI50 is 2.14 µM (inactive).
For `COC(=O)[C@]1(C)CCC[C@]2(C)[C@H]3CC[C@]4(C(C)C)OO[C@@H](O4)[C@]34O[C@@H]4C[C@H]21`, the GI50 in the test with HCT-116 is 1.63 µM (inactive); in the test with IGROV-1, 0.157 µM (active); in the test on K562, 1.99 µM (inactive); in the test with LOX IMVI, 0.35 µM (active); in the test with M14 it was 4.8 µM (inactive); with MCF7 it was 2.19 µM (inactive). For the same molecule, the GI50 in the test with MDA-MB-231 was 4.11 µM (inactive); in the test on MDA-N it was 2.22 µM (inactive); in the test with MOLT-4, 1.21 µM (inactive); with Malme-3M, 6.68 µM (inactive); in the test on OVCAR-4, 1.85 µM (inactive); with RXF 393, 4.28 µM (inactive). Besides, the GI50 with SF-268 is 2.24 µM (inactive); in the test on SF-539, 10.6 µM (inactive); in the test on SK-MEL-5 it was 1.69 µM (inactive); in the test on SK-OV-3, 2.32 µM (inactive); in the test on SW-620, 3.1 µM (inactive); with T47D, 1.76 µM (inactive). Besides, the GI50 in the test on U-251 is 3.65 µM (inactive).
In the case of `COc1cccc(Nc2nc3c([nH]2)c(=O)n(C)c(=O)n3C)c1`, the GI50 with IGROV-1, with K562, in the test with LOX IMVI, in the test with M14, in the test on MCF7 and in the test on MDA-MB-231 was > 10 µM (inactive) each time. The GI50 with MDA-N is > 10 µM (inactive); in the test on MOLT-4, > 10 µM (inactive); in the test on Malme-3M, > 10 µM (inactive); with OVCAR-4, > 10 µM (inactive); in the test with RXF 393, 7.01 µM (inactive); in the test on SF-268 it was > 10 µM (inactive). The GI50 with SK-MEL-5, in the test on SK-OV-3, with SW-620 and in the test with T47D was > 10 µM (inactive) each time.
Regarding `COc1ccc(C2C(C#N)=C(S)N(C3OC(COC(C)=O)C(OC(C)=O)C(OC(C)=O)C3OC(C)=O)C(C)=C2C(C)=O)cc1` (stereo not drawn), the GI50 in the test on HCT-116 is 65 µM (inactive); with IGROV-1, > 100 µM (inactive); in the test with K562, 28.1 µM (inactive); in the test on LOX IMVI, > 100 µM (inactive); in the test on M14, 57 µM (inactive); with MCF7, > 100 µM (inactive). The GI50 in the test on MDA-MB-231 is > 100 µM (inactive); in the test with MDA-N, 46.1 µM (inactive); in the test with MOLT-4, 20.1 µM (inactive); with Malme-3M, > 100 µM (inactive); with OVCAR-4 it was 53 µM (inactive); with RXF 393, 40.5 µM (inactive). The GI50 in the test with SF-268 was > 100 µM (inactive); with SF-539, > 100 µM (inactive); in the test on SK-MEL-5, 26.4 µM (inactive); in the test with SK-OV-3, > 100 µM (inactive); in the test on SW-620, 42.3 µM (inactive); in the test on T47D, 28.6 µM (inactive). In addition, the GI50 in the test with U-251 was > 100 µM (inactive).
